# Values quoted from earlier work as cited in US11701338B2, “Use of gTso thal in manufacturing medicament for promotion of MS-275 to cross blood-brain barrier” (Northwest Institute of Plateau Biology, Chinese Academy of …, priority 2020, dated 2023).
# Settings: after oral or intravenous administration
compound,measurement,value
Nc1ccccc1NC(=O)c1ccc(CNC(=O)OCc2cccnc2)cc1 [MS-275],share of the dosage of MS-275 that crosses the BBB into the brain,around 15%
